Test results from patent US20060166901A1, “Compositions comprising O-acetylsalicyl derivatives of aminocarbohydrates and amino acids” (priority 2005, published 2006).

Key:
[1] = patients, recent studies; cited from earlier work
[2] = system: osteoarthritis of both knees; experiment: Oral administration to a subject with osteoarthritis of both knees, relief of knee pain and adverse reactions; format: in vivo, human; details: earlier treatment
Experimental: The subject took an oral dose of 100 mg N—(O-acetylsalicyl)-L-tyrosine ethyl ester.
Subject, weight 90 kg, had 4 year history of osteoarthritis of both knees which was confirmed by X-ray and MRI showing diminished articular space. Symptoms of pain upon walking and at rest, as well as tenderness to palpation, had been consistently present, varying in intensity from moderate to severe.
[…] […] The subject did intensive physical activities during the next 10 hours that consisted of farming manual labor that included climbing up and down the banks of a pond to cut off cattail weeds at root level, and manually carrying stalks up the pond bank to level ground. Other physical exertions included numerous mounting and demounting from a farm tractor that pulled a trailer containing cattail weeds to dumping sites.

[3] = nonsteroidal anti-inflammatory agents

For `Cc1ccc(-c2cc(C(F)(F)F)nn2-c2ccc(S(N)(=O)=O)cc2)cc1` [celecoxib], the “rates of heart attack (cardiac arrest) versus the control group” value [1] is given as “higher rates of heart attack”.

With `CC(C)Cc1ccc(C(C)C(=O)O)cc1` (centres unmarked) [ibuprofen] the “relief of osteoarthritis symptoms (subject's history)” value (“relief of osteoarthritis symptoms” for short) [2, 3] was “had not been relieved”.

For `COc1ccc2cc([C@H](C)C(=O)O)ccc2c1` [naproxen], the “relief of osteoarthritis symptoms” value [2, 3] was “had not been relieved”.

For `C[C@]12C=CC(=O)C=C1CC[C@@H]1[C@@H]2C(=O)C[C@@]2(C)[C@H]1CC[C@]2(O)C(=O)CO` [prednisone], the “relief of osteoarthritis symptoms” value ([2]; oral, 10-30 mg daily) was “relieved incompletely”.

For `CS(=O)(=O)c1ccc(C2=C(c3ccccc3)C(=O)OC2)cc1` [rofecoxib, Rofecoxib], the “rates of heart attack (cardiac arrest) versus the control group” value [1] is listed as “higher rates of heart attack”.
